Measurements published in patent publication US20190022091A1, “METHOD OF TREATMENT FOR MENTAL DISORDERS” (SUMITOMO DAINIPPON PHARMA CO., LTD., priority 2010, published 2019).
Structures can show the parent of a compound that is named as a salt.

Columns and labels:
common marmosets = test: ORD test (object retrieval with detour test) in marmosets; format: in vivo, common marmoset; conditions: for variation of the correct % of the ORD test (difficult task): single oral administration, test 2 hours after administration vs before, FIG. 2-6
Method: ORD test (object retrieval with detour test) is already reported as a method for evaluating executive function (attention function/impulsiveness) in primates.
Male and female common marmosets having body weights of 250-450 g were used. Haloperidol, clozapine, olanzapine, risperidone, and lurasidone hydrochloride were separately suspended in 0.5% methylcellulose (MC), and then each suspension was orally administered in a dose of 5 mL/kg to the marmosets. On the other hand, L-745,870 which is a D4 antagonist, and Ro 10-5824 which is a D4 agonist were separately dissolved in saline, and then each solution was intramuscularly administered to the femoris area in a dose of 0.5 mL/kg.
According to the method described in the literature (Psychopharmacology (2006) 196: 643-648) which was partially modified, the ORD test was carried out as follows (see FIG. 1).
In each of the boxes, 0.3-0.5 g of Baumkuchen as a food reward is placed at the point of each triangle in FIG. 1. The marmoset can reach out from the cage (shown as dotted line region) to obtain the reward placed in the acrylic box. FIG. 1 is a view from the directly above. Amongst the situations between each direction of the box and each position of the reward, 5 patterns (line of sight, left outside, left inside, right outside, and right inside) are defined as “easy task”, and the other 2 patterns (left deep, and right deep) are defined as “difficult task”. It is recorded as “correct” when the test animal can obtain the reward in one trial, while it is recorded as “incorrect” when the animal can obtain the reward in the second trial or later.
The ORD test is carried out in the order described in the following table without any interval between each trial, which is referred to as “one series”. The marmoset is made to be trained with the one series once a day.
The marmosets were trained with the ORD test at least 10 times, and then the trained marmosets were used in the following main test.
The main ORD test was carried out as follows.
(1) The ORD test is carried out before administering each test drug (former value). Hereinafter, the ORD test is done in one series containing the 17 trials corresponding to the above-mentioned training.
(2) Two hours after administering each test drug, the same ORD test is carried out again (latter value). In case of the combined administration, the first drug (lurasidone hydrochloride) is administered; one hour later, the second drug (the D4 antagonist or D agonist) is administered; and then the ORD test is done one hour after the second drug is administered.
(3) The variation of correct % in the Difficult task is calculated according to the following formula in order to evaluate the effect of each drug. For example, in case that the “correct count” in the before-administration test (former value) is 3 and the “correct count” in the after-administration test (latter value) is 5, the “correct %” is calculated to rise in 25% (=(5-3)/8×100%) based on the fact that the trial count of the difficult task in each series is 8.
The variation of the correct %={the difference between the both correct counts in the difficult task (latter value−former value)}/8×100
(4) The amount of Baumkuchen is 0.5 g×17=8.5 g in one series. The marmoset can be tested at most 2 sets per day, i.e. it has been confirmed that the marmoset can take at most 17 g of Baumkuchen per day, but, all the test marmosets cannot be satisfied with 17 g of Baumkuchen.
(5) In case that a marmoset treated with the drug is used again, the marmoset is given in 2 week-drug-holidays, and before the test it is confirmed that the previous medication will not affect the test.
(6) 5 to 6 marmosets were used per one test group. When a marmoset (s) suffered from vomiting or cataleptic akinesia induced by the drug and then the ORD test with the marmoset (s) could not be done, the data of the marmoset(s) were excluded. […]

5-HT2A = 5-HT2A (Homo sapiens, UniProt P28223); conditions: cited from earlier work
5-HT2A, sequence (P28223 whole entry, species assumed): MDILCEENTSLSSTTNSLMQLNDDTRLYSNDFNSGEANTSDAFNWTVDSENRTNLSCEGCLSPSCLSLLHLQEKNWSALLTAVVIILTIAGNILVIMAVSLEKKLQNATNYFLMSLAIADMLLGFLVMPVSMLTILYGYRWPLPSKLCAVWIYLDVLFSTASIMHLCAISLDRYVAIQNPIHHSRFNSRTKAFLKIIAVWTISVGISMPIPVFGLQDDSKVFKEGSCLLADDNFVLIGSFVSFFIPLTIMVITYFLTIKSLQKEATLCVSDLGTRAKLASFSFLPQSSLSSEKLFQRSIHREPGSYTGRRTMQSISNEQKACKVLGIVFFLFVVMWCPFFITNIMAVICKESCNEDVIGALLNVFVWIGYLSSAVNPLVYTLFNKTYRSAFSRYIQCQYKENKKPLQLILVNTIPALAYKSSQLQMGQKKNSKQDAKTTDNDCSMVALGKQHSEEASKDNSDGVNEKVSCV

dopamine D2 = dopamine D2 (Homo sapiens, UniProt P14416); conditions: cited from earlier work
dopamine D2, sequence (P14416 whole entry): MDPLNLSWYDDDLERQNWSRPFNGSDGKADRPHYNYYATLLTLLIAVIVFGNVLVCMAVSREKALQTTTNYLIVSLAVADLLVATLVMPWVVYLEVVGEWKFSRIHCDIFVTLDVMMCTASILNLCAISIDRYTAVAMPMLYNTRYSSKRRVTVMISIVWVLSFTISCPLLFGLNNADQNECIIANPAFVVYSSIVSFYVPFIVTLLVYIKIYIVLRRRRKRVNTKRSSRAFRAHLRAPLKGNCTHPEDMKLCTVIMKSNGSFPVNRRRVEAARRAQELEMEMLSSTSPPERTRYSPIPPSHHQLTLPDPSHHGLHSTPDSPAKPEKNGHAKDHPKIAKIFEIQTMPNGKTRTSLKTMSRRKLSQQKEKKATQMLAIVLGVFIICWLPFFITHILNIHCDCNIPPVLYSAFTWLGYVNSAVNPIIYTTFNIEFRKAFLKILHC

serotonin 5-HT1A = biological target: T1, serotonin 5-HT1A (Homo sapiens, UniProt P08908); conditions: cited from earlier work
T1 sequence (P08908 1-422): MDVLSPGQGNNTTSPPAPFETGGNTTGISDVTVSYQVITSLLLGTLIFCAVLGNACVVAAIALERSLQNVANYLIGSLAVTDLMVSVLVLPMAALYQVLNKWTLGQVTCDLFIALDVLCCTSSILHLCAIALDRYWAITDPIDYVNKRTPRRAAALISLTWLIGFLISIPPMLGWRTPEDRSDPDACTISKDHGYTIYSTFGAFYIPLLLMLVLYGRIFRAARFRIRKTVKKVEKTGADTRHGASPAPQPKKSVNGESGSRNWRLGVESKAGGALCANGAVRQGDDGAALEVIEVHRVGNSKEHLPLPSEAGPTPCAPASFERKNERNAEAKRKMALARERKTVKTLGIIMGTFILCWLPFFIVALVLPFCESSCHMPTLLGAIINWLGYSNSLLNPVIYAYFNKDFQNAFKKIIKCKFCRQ

muscarinic M1 receptors = biological target: T2, muscarinic M1 receptors (Homo sapiens, UniProt P11229); conditions: cited from earlier work
T2 sequence (P11229 1-460): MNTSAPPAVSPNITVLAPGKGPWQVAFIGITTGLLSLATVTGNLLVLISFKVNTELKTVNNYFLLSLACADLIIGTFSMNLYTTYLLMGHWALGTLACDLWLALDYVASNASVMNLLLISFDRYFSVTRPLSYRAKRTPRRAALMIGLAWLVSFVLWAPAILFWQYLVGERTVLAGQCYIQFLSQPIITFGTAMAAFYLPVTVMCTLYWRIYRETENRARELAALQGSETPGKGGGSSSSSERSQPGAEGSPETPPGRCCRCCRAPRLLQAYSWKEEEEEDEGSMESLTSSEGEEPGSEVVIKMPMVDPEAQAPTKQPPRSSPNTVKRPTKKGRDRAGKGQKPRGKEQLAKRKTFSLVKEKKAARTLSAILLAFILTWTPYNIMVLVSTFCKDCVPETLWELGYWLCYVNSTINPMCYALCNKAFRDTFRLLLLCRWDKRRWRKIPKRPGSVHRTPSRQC

5-HT7 = 5-HT7 (Homo sapiens, UniProt P34969); conditions: cited from earlier work
5-HT7, sequence (P34969 whole entry, species assumed): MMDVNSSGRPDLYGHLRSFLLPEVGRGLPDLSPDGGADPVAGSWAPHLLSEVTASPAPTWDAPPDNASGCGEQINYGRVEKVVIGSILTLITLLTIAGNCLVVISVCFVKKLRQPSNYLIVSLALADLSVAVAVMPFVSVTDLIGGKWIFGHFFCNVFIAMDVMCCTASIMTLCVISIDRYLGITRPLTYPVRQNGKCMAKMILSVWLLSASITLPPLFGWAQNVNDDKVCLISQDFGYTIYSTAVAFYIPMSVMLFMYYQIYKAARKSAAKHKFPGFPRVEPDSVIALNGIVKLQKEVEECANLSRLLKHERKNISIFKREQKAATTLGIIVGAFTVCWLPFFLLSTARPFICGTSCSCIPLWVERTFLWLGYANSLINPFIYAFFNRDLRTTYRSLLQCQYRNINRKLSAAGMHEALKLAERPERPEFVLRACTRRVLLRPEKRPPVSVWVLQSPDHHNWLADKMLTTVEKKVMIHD

[1] = biological target: T3, noradrenaline α2c receptors (Homo sapiens, UniProt P18825); conditions: cited from earlier work
T3 sequence (P18825 1-462): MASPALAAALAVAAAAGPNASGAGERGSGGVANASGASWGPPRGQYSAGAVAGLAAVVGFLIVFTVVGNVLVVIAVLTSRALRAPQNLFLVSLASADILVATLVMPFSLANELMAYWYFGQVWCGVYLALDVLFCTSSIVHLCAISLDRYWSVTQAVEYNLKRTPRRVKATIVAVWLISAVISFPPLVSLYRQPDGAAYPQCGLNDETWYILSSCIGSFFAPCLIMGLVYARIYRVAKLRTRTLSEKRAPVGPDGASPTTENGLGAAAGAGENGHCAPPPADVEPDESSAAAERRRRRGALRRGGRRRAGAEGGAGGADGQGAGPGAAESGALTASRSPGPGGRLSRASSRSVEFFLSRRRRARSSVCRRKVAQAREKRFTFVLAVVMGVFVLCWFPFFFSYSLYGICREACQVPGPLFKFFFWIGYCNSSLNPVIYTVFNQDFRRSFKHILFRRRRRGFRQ

histamine H1 = histamine H1 (Homo sapiens, UniProt P35367); conditions: cited from earlier work
histamine H1, sequence (P35367 whole entry): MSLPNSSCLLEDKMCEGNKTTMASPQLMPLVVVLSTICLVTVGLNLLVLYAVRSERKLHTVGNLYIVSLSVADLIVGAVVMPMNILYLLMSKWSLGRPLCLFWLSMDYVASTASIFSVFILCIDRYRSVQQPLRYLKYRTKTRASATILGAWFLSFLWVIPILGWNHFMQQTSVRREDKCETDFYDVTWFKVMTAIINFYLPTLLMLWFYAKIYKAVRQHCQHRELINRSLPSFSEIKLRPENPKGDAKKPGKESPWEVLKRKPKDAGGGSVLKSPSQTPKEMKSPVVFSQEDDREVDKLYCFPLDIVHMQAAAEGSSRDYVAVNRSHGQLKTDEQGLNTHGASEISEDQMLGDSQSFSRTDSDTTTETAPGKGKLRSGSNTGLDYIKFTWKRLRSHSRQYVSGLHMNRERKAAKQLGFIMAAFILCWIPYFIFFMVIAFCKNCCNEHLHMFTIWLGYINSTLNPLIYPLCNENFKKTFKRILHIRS

SHRSP rats = test: Y-maze test with juvenile SHRSP rats; format: in vivo, rat; conditions: for Total Arm Entries mean ± SE / % of Alternation Behavior mean ± SE: SHRSP; for Total Arm Entries mean ± SE: 8 minute session; for % of Alternation Behavior mean ± SE: 30 minutes before evaluation
Source text: According to the Y-maze test with juvenile stroke-prone spontaneously hypertensive rats (SHRSP), it is possible to evaluate the effect of lurasidone hydrochloride on attention function with spontaneous Alternation Behavior as an index of attention or concentration (Behav Brain Funct. 2005 Jul. 15; 1:9). Moreover, the effects of lurasidone hydrochloride on hyperactivity, which is one of core symptoms in ADHD, can be confirmed by the total number of the Arm Entries in a Y-maze test.
For the estimation of inattentive behavior, male juvenile SHRSP rats as an ADHD model and WKY rats as a reference (4 weeks old, n=8-10/group) are used. These animals are commercially available from Charles River Laboratories Japan, inc. or Hoshino Laboratory animals, inc. Lurasidone hydrochloride (e.g. 0.01, 0.03, 0.1, 0.3, 1, 3 and 10 mg/kg; produced by Dainippon Sumitomo Pharma Co., Ltd.) is dissolved in 0.5% methylcellulose and 0.2% Tween 80, and is administrated intraperitoneally in a volume of 1 ml/kg, 30 minutes before the evaluation.
The method of Y-maze test was already reported elsewhere (Behav Pharmacol. 2002 February; 13(1):1-13). The “Arm Entry” means the entry of all four paws into one arm. The “Alternation Behavior”, which is actual alternations, means the consecutive Arm Entries into three different arms. The test is carried out for 8 minutes in one session and the total number that a rat performs the Arm Entry is counted. The “Maximum Alternations” means the total number of the Arm Entries minus two. An index of attention is calculated as a percentage of the Alternation Behavior, as described below.
A percentage of Alternation Behavior=(the total number of the Alternation Behavior)/(the Maximum Alternations)×100

## Clc1ccc(N2CCN(Cc3c[nH]c4ncccc34)CC2)cc1 [L-745,870]
Common marmosets; L-745,870 3 mg/kg i.m. combined with lurasidone hydrochloride 10 mg/kg p.o., FIG. 7
  correct % of the ORD test: decreased the correct % which was increased by the administration of lurasidone hydrochloride
Common marmosets; single intramuscular administration, 10 mg/kg, FIG. 7
  ORD score: had no effects on the ORD score

## O=C1[C@@H]2[C@H]3CC[C@H](C3)[C@@H]2C(=O)N1C[C@@H]1CCCC[C@H]1CN1CCN(c2nsc3ccccc23)CC1 [Lurasidone, (3aR, 4S, 7R, 7aS)-2-{1(1R,2R)-2-(4-(1,2-benzisothiazol-3-yl)piperazin-1-yl-methyl]cyclohexylmethyl}hexahydro-4,7-methano-2H-isoindole-1,3-dione]
5-HT2A
  affinity: high affinity
Dopamine D2
  affinity: high affinity
Serotonin 5-HT1A
  affinity: high affinity
Muscarinic M1 receptors
  affinity: minimal to no affinity
5-HT7
  affinity: high affinity
[1]
  affinity: high affinity
Histamine H1
  affinity: minimal to no affinity

## Cc1ncc(CN2CC=C(c3ccccc3)CC2)c(N)n1 [Ro 10-5824, 2-Methyl-5-(4-phenyl-1,2,3,6-tetrahydropyridin-1-yl-methyl)pyrimidine-4-amine]
Common marmosets; Ro 10-5824 alone, 0.3 mg/kg i.m.
  correct % of the ORD test: had no effects on the correct %
Common marmosets; single administration i.m., dose series, FIG. 8
  ORD score: increased the ORD score in a dose dependent manner

## O=C(CCCN1CCC(O)(c2ccc(Cl)cc2)CC1)c1ccc(F)cc1 [haloperidol]
Common marmosets
  variation of the correct % of the ORD test (difficult task): decreased the correct % of the ORD test in a dose-dependent manner

## O=C1[C@@H]2[C@H]3CC[C@H](C3)[C@@H]2C(=O)N1C[C@@H]1CCCC[C@H]1CN1CCN(c2nsc3ccccc23)CC1 [lurasidone hydrochloride]
SHRSP rats; 0.1 mg/kg i.p.
  Total Arm Entries mean ± SE: 24 ± 1
  % of Alternation Behavior mean ± SE: 70 ± 5%
SHRSP rats; 0.3 mg/kg i.p., P < 0.05
  Total Arm Entries mean ± SE: 22 ± 2
  % of Alternation Behavior mean ± SE: 75 ± 2 %
SHRSP rats; 1.0 mg/kg i.p., P < 0.05
  Total Arm Entries mean ± SE: 21 ± 1
SHRSP rats; 1.0 mg/kg i.p.
  % of Alternation Behavior mean ± SE: 72 ± 2%
SHRSP rats; SHRSP, 0.1, 0.3 or 1.0 mg/kg, significant at 0.3 mg/kg (p=0.0124)
  Alternation Behavior (in words): the Alternation Behavior was improved
SHRSP rats; SHRSP, 0.1, 0.3 or 1.0 mg/kg, significant at 0.3 (p=0.0096) and 1 (p=0.0047) mg/kg
  number of total Arm Entries (in words): showed the decreased number of total Arm Entries
Common marmosets; lurasidone hydrochloride 3 mg/kg p.o. combined with Ro 10-5824 0.3 mg/kg i.m., FIG. 8
  ORD score: the ORD score was significantly increased
Common marmosets; lurasidone hydrochloride alone, 3 mg/kg p.o.
  correct % of the ORD test: had no effects on the correct %
Common marmosets
  variation of the correct % of the ORD test (difficult task): increased the correct % of the ORD test in a dose-dependent manner

## Cc1nc2n(c(=O)c1CCN1CCC(c3noc4cc(F)ccc34)CC1)CCCC2 [risperidone]
Common marmosets
  variation of the correct % of the ORD test (difficult task): decreased the correct % of the ORD test in a dose-dependent manner
